These results are taken from patent US10272117B2, “Methods of using an activator of cereblon for neural cell expansion and the treatment of central nervous system disorders” (Celgene Corporation, priority 2014, dated 2019).

The subject of one data set is zebrafish. Description: Resistance to thalidomide in brain development (brain thickness to body length). In kind it is in vivo. The protocol:
To analyze the functional relationship between thalidomide and BRD7, brain development of BRD7-knockdown zebrafish treated with thalidomide was examined and compared with that of normal zebrafish treated with thalidomide. […] FIGS. 12A and 12B show the normal zebrafish treated with 400 μM thalidomide. FIGS. 12C and 12D show the BRD7-knockdown zebrafish treated with 400 μM thalidomide. FIGS. 12A′ and 12C′ show the brain regions of the normal zebrafish treated with 400 μM thalidomide. FIGS. 12B′ and 12D′ show the brain regions of the BRD7-knockdown zebrafish treated with 400 μM thalidomide. […] The percentages of brain thickness to body length in the normal and the BRD7-knockdown zebrafish, with or without thalidomide treatments were also measured. […] The brain size of the BRD7-knockdown larvae incubated in thalidomide is 98.8% of that of the BRD7-knockdown larvae incubated in the absence of thalidomide.

The next data set has as its system zebrafish embryos. Briefly: Immunostaining of neurons, proliferating cells, glia and serotonin-positive cells in zebrafish. In kind it is in vivo. The conditions noted are these: for numbers of serotonin-positive cells / numbers of radial glia cells: 54-55 hpf; for numbers of radial glia cells: Zrf-2. The protocol:
Antibody staining of early neurons of zebrafish was performed by the following technique. The embryos 24 to 28 hours after fertilization were fixed at 4° C. for 12 hours in a 4% paraformaldehyde/phosphate buffer (pH 8.0). After washing four times with phosphate buffer, where each wash was performed for 15 minutes, blocking was carried out at normal temperature for one hour in 5% newborn goat serum dissolved in 0.5% Triton X-100/phosphate buffer. Primary antibody reaction was carried out using a monoclonal anti-acetylated tubulin antibody diluted at 1:1000 in the same solution at 4° C. for 12 hours. Then, after washing the embryos similarly with phosphate buffer, secondary antibody reaction was carried out using an anti-mouse antibody conjugated with Alexa Fluoro 488 (Molecular Probes) under the same conditions as those applied in the primary antibody reaction. The embryos were then washed with phosphate buffer and transparentized in 30%/50%/70% glycerol (dissolved in phosphate buffer), and then observed with a fluorescent microscope under excitation at 488 nm.
Two-days-old zebrafish were used (for glia cell staining and serotonin-producing cell staining, zebrafish 56 hours and 49 hours after fertilization were used, respectively). Zebrafish were fixed with 4% paraformaldehyde (PFA) and then washed with phosphate buffer (PBS), followed by treatment with 10 μg/ml protease K for partial digestion of the epidermis. After the digestion reaction, the zebrafish were washed with PBST (PBS+0.5% Triton X-100) for 20 minutes and then fixed with PFA again. The fixed zebrafish were washed with PBST at room temperature for one hour, followed by blocking using PBST+5% goat serum. The resulting specimens were reacted with a monoclonal anti-glia antibody (zrf-1/zrf-2) or a rabbit anti-serotonin antibody at 4° C. overnight (12 to 18 hours). Subsequently, the specimens were washed with PBST+5% goat serum for one hour at room temperature, and secondary antibody reaction was carried out by substituting the antibody for a goat anti-mouse IgG antibody (Cy-2 conjugate for glia cell staining) or a goat anti-rabbit IgG antibody (Cy-5 conjugate for serotonin-producing cell staining) at 4° C. overnight (12 to 18 hours). Subsequently, the specimens were washed with PBST at room temperature for one hour. After washing, PBST was replaced by 30%, 50%, and 70% glycerol/PBS, and the whole zebrafish were mounted on glass slides to obtain preparations. Fluorescence was observed under excitation wavelength of Cy-2 and Cy-5, and the distribution of the glia cells or the serotonin-producing cells was recorded. Glia cells were observed from the lateral side of zebrafish, while the serotonin-producing cells were photographed from the dorsal side in order to observe the distribution of the cells along the midline.
Numbers of primary neurons and proliferating cells were analyzed by immunostaining in untreated and Ikaros-knockdown zebrafish embryos at 27 hpf. FIGS. 17A and 17D show the primary neurons in the CNS of the untreated and the Ikaros-knockdown zebrafish embryos, respectively, at 27 hpf by immunostaining with anti-acetylated tubulin antibody. FIGS. 17B and 17E show the proliferating cells in the CNS of the untreated and the Ikaros-knockdown zebrafish embryos, respectively, at 27 hpf by immunostaining with anti-phospho-histone H3 antibodies. […] Global distribution of the primary neurons was normal as shown (scale bar: 50 μm).
The number of phosphorylated histone H3-positive cells was counted in a stacked focal plane of laser confocal microscope at 27 hpf. The average number of the H3-positive cells in the telencephalon, the diencephalon, and the midbrain was statistically compared between the untreated and the Ikaros-knockdown embryos (n=3 in each experiment).
The numbers of radial glial cells and matured neurons were analyzed in untreated and CRBN-overexpressing zebrafish embryos. […]

With “5′-TGTGTTTCTTGTGCTTTTTGCCCAT-3′ (all phosphorodiamidate morpholino (PMO)) [BRD7-knockdown, 25-mer antisense morpholino oligonucleotide (AMO) used for the BRD7 gene knockdown]”, the “brain size relative to normal larvae” value with zebrafish (in 400 μM of thalidomide, n=12) is given as 140.0%; in the data set on zebrafish (normal E3 medium, without thalidomide treatment), 120.7%. Moreover, in the data set with zebrafish (in thalidomide solution (400 μM)), the “brain development of BRD7-knockdown larvae” value is “developed almost normally”.

For “5′-AGAGCTGTAGCTGGTTCCCCATTTC-3′ (all phosphorodiamidate morpholino (PMO)) [CRBN-knockdown, 25-mer antisense morpholino oligonucleotide (AMO) used for the CRBN gene knockdown, reference compound]”, in the data set on zebrafish embryos, the “numbers of serotonin-positive cells” value was “decreased” and the “numbers of radial glia cells” value is on record as “decreased”.

With “5′-TTCCTGTGCCTCCTCAGTCTCCATC-3′ (all phosphorodiamidate morpholino (PMO)) [Ikaros-knockdown, 25-mer antisense morpholino oligonucleotide (AMO) used for the Ikaros gene knockdown]”, in the data set on zebrafish embryos (27 hpf, anti-acetylated tubulin), the “number of the primary neurons in the CNS” value was “increased”. In the data set on zebrafish embryos (27 hpf, anti-phospho-histone H3), the “number of the proliferating cells in the CNS” value is given as “increased”. Besides, the “number of H3-positive proliferating cells in telencephalon, diencephalon and midbrain” value in the data set with zebrafish embryos (27 hpf, n=3) is “increased”. Besides, in the data set on zebrafish embryos, the “numbers of serotonin-positive cells” value was “increased” and the “numbers of radial glia cells” value is given as “increased”.
